Measured values reported in patent publication US20250171430A1, “PYRAZOLYL COMPOUNDS AS KV7 CHANNEL ACTIVATORS” (Biohaven Therapeutics Ltd., priority 2022, published 2025).

Each molecule was assayed against T1, Kv7.2/7.3 (Homo sapiens, UniProt O43525+O43526) (assay: Kv7.2/7.3 Activation Assay (Thallium Flux Assay)). Details: hKV7.2/7.3 cell line; test compound at single concentration of 10 μM; fluorescence at 90 sec normalized to positive control (retigabine, 30 μM).
T1 construct: Kv7.2 tetracycline-induced, Kv7.3 constitutive
Format: cell-based
How it was run: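 Single-point activity at 10 μM (0.1% DMSO, HEPES-buffered saline, pH 7.4) was scored from fluorescence at 90 s relative to 30 μM retigabine. Categories were none <0.15, moderate 0.15-0.7 and high >0.7. Thallium influx after stimulus addition was followed with FluxOR II Green dye in hKv7.2/7.3 cells, Kv7.2 expressed under overnight tetracycline (10 ng/mL) induction.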

Structure (SMILES)	Kv7.2/7.3 Activity
CCn1nc(NC(=O)CC(C)C)c(C2CC2)c1C [Compound 5, N-(4-cyclopropyl-1-ethyl-5-methyl-1H-pyrazol-3-yl)-3-methylbutanamide]	− (“−” No Activity < 0.15)
Cc1c(NC(=O)CC(C)(C)C(F)(F)F)nn(C)c1-c1ccc(F)cc1 [Compound 20, 4,4,4-trifluoro-N-(5-(4-fluorophenyl)-1,4-dimethyl-1H-pyrazol-3-yl)-3,3-dimethylbutanamide]	++ (“++” High Activity ≥ 0.7)
Cn1nc(NC(=O)[C@H]2CC2(F)F)c(C2CCC2)c1-c1ccccc1F [Compound 161, (R)-N-(4-cyclobutyl-5-(2-fluorophenyl)-1-methyl-1H-pyrazol-3-yl)-2,2-difluorocyclopropane-1-carboxamide]	+ (“+” Moderate Activity 0.15-0.7)
Cn1nc(NC(=O)C(C)(O)c2ccccc2)c(C2CCC2)c1-c1ccc(OC(F)(F)F)cc1 (stereo not drawn) [Compound 182, N-(4-cyclobutyl-1-methyl-5-(4-(trifluoromethoxy)phenyl)-1H-pyrazol-3-yl)-2-hydroxy-2-phenylpropanamide]	++ (“++” High Activity ≥ 0.7)
Cn1nc(NC(=O)[C@H]2CC2(F)F)c(C2CCC2)c1-c1ccc(F)cc1F [Compound 159, (R)-N-(4-cyclobutyl-5-(2,4-difluorophenyl)-1-methyl-1H-pyrazol-3-yl)-2,2-difluorocyclopropane-1-carboxamide]	+ (“+” Moderate Activity 0.15-0.7)
CC(C)c1c(NC(=O)C[C@H]2CC(F)(F)C2(F)F)nn(C)c1-c1ccc(OC(F)(F)F)cc1 [Compound 25, (S)-N-(4-isopropyl-1-methyl-5-(4-(trifluoromethoxy)phenyl)-1H-pyrazol-3-yl)-2-(2,2,3,3-tetrafluorocyclobutyl)acetamide]	++ (“++” High Activity ≥ 0.7)
Cn1nc(NC(=O)[C@H]2CC2(F)F)c(C2CCC2)c1-c1cnc(C(F)(F)F)s1 [Compound 298, (R)-N-(4-cyclobutyl-1-methyl-5-(2-(trifluoromethyl)thiazol-5-yl)-1H-pyrazol-3-yl)-2,2-difluorocyclopropane-1-carboxamide]	− (“−” No Activity < 0.15)
Cn1nc(NC(=O)C[C@@H]2CC(F)(F)C2(F)F)c(C2CCC2)c1-c1cnc(C(F)(F)F)s1 [Compound 59, (R)-N-(4-cyclobutyl-1-methyl-5-(2-(trifluoromethyl)thiazol-5-yl)-1H-pyrazol-3-yl)-2-(2,2,3,3-tetrafluorocyclobutyl)acetamide]	+ (“+” Moderate Activity 0.15-0.7)
Cn1nc(NC(=O)C2(C(F)(F)F)CCC2)c(C2CCC2)c1-c1ccc(F)cc1 [Compound 124, N-(4-cyclobutyl-5-(4-fluorophenyl)-1-methyl-1H-pyrazol-3-yl)-1-(trifluoromethyl)cyclobutane-1-carboxamide]	+ (“+” Moderate Activity 0.15-0.7)
Cn1nc(NC(=O)OC2CC(F)(F)C2)c(C2CCC2)c1C1CCC(F)(F)CC1 [Compound 292, 3,3-difluorocyclobutyl (4-cyclobutyl-5-(4,4-difluorocyclohexyl)-1-methyl-1H-pyrazol-3-yl)carbamate]	++ (“++” High Activity ≥ 0.7)
Cn1nc(NC(=O)OC2CC(F)(F)C2)c(C2CCC2)c1-c1cc(F)cc(F)c1 [Compound 269, 3,3-difluorocyclobutyl (4-cyclobutyl-5-(3,5-difluorophenyl)-1-methyl-1H-pyrazol-3-yl)carbamate]	++ (“++” High Activity ≥ 0.7)
Cn1nc(NC(=O)CC2(C(F)F)CC2)c(C2CCC2)c1-c1cc(F)cc(F)c1 [Compound 259, N-(4-cyclobutyl-5-(3,5-difluorophenyl)-1-methyl-1H-pyrazol-3-yl)-2-(1-(difluoromethyl)cyclopropyl)acetamide]	++ (“++” High Activity ≥ 0.7)
